Test results: ChEMBL document CHEMBL1201862, “PubChem BioAssay data set” (2004)
Calls of active or inactive are those of the source.

Legend:
[1] = biological target: FAD-linked sulfhydryl oxidase ALR (Homo sapiens, UniProt P55789); experiment: inhibitors of human ALR sulfhydryl oxidase, dose response, biochemical, H2O2 detection, luminescence, cherry-pick (AID 493248)
[2] = biological target: Nonstructural protein 1 (Influenza A virus, UniProt Q194T2); type: functional, Influenza A virus (A/California/07/2009(H1N1))
[3] = biological target: T1, Rac GTPase-activating protein 1 (Homo sapiens, UniProt Q9H0H5); experiment: MgcRacGAP GTPase-activating activity inhibitors, confirmation, biochemical, ADP Hunter fluorescence, primary and confirmatory (AID 624330); type: functional
T1 sequence (Q9H0H5 whole entry): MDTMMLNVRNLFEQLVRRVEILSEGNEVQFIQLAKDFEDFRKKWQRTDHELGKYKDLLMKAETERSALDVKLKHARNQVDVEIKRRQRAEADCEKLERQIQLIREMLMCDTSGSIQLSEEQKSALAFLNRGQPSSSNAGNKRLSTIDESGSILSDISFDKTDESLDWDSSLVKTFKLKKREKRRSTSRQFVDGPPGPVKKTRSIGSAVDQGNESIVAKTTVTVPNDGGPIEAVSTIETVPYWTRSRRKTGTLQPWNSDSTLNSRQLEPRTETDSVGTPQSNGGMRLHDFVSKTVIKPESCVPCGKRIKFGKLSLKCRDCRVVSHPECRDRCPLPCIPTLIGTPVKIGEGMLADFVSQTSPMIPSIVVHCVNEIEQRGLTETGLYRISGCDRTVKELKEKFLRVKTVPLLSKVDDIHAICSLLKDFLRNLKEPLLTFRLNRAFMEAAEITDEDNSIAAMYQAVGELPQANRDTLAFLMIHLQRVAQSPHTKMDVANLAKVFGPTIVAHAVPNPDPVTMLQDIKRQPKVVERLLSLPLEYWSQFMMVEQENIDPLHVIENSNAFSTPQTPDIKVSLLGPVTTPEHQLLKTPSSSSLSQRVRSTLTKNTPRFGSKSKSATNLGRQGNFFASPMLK

[4] = microbe, parasite or virus in culture; type: functional; conditions: Mycobacterium tuberculosis
[5] = biological target: T2, Cytochrome P450 1A2 (Homo sapiens, UniProt P05177);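 also: PubChem cytochrome P450 panel assay, CYP1A2 panel member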
T2 sequence (P05177 whole entry): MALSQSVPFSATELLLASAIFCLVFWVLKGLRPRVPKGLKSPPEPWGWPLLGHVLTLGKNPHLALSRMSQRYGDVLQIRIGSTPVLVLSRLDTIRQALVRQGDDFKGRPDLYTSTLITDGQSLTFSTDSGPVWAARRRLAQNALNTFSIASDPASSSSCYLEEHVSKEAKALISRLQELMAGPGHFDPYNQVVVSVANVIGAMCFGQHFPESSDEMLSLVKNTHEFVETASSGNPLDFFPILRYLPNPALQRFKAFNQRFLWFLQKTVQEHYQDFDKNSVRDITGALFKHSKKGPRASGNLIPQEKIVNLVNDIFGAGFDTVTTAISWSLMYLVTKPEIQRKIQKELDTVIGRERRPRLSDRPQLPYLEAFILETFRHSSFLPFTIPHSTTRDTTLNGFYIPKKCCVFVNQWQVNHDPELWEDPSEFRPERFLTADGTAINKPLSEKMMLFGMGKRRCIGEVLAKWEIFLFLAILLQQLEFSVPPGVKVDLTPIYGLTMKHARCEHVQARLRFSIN

[6] = cytotoxicity toward NIH3T3 fibroblasts, dose response, counter-screen, cell-based, ATP luminescence, mouse fibroblasts (AID 2010); type: functional;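 also: cells exposed to compound for about 90 hours before reading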
[7] = inhibitors of intracellular T. cruzi replication, confirmation, NIH3T3 host cells, beta-gal luminescence (AID 2044); type: functional, cell-based;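 also: intracellular parasites grown in NIH/3T3 mouse fibroblasts as host cells; luminescent beta-galactosidase reporter signal from transgenic T. cruzi replicating inside host cells; inhibitors lower the luminescence signal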
[8] = biological target: Voltage-dependent T-type calcium channel subunit alpha-1H (Homo sapiens, UniProt O95180); type: functional;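 also: channel activity triggered by adding a high calcium stimulation buffer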
[9] = NIH-3T3 fibroblast cytotoxicity, dose response, cytotoxicity control, cell-based, fluorescence, Alamar Blue, secondary assay (AID 2327); type: functional;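 also: NIH-3T3 mouse fibroblasts cultured with fluconazole at 8 µg/mL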
[10] = C. albicans growth with fluconazole, confirmation, fluorescence, retest (AID 2467); type: functional, cell-based
[11] = system: Streptococcus sp. 'group A'; experiment: growth inhibition of control SK(-) GAS strain, dose response, counter-screen for streptokinase expression inhibitor project, luminescence, kanamycin, BacTiterGlo, confirmation (AID 1900); type: functional, organism-based
[12] = system: Streptococcus; experiment: Group A Streptococcus viability loss, dose response, counter-screen for streptokinase expression inhibitor project, luminescence, BacTiterGlo (AID 1915); type: functional, organism-based;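 also: potency for reduction of bacterial viability or growth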
[13] = biological target: T3, Polyadenylate-binding protein 1 (Homo sapiens, UniProt P11940); experiment: PABP1 MLLE–PAM2 interaction inhibitors, dose response, miRNA deadenylation inhibitor project, biochemical, fluorescence polarization, Cy5-PAM2 peptide, secondary (AID 602260); type: functional; conditions: read-out: IC50_Mean
[14] = biological target: T3, Polyadenylate-binding protein 1; experiment: PABP1 MLLE–PAM2 binding inhibitor potency, dose response, biochemical, fluorescence polarization, FITC-PAM2 peptide (AID 602259); type: functional; conditions: read-out: IC50_Mean
[15] = system: H9c2; experiment: cells; type: functional, cell-based; conditions: Rattus norvegicus, H9c2, Myocardium;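 also: confirmatory concentration-response retest of ultra-high-throughput screening hits for modulation of myocardial damage; cell death induced by hydrogen peroxide oxidative stress; compound pretreatment for 60 min then peroxide exposure for 2 h; potency is for protecting the cells against peroxide damage rather than for killing them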
[16] = system: INS1; experiment: beta cell apoptosis inhibitors, cytokine rescue, dose response, luminescence, retest (AID 449756); type: functional, cell-based; conditions: Rattus norvegicus;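 also: cell death triggered by IL-1 beta plus TNF-alpha plus IFN-gamma mixture; protective hits raise ATP signal compared with cytokine alone wells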
[17] = Luminescence Cell-Based Dose Response HTS to Identify Activators of Luciferase Translation or Activity in H4 […] Cells. [Related pubchem assays: 1829 (Project Summary), 1814 (Primary HTS)]; type: functional
[18] = Luminescence Cell-Based Dose Confirmation HTS to Identify Activators of 5'UTR Stem-Loop Driven Alpha-Synuclein mRNA Translation in H4 Neuroglioblastoma Cells. [Related pubchem assays: 1829 (Project Summary), 1814 (Primary HTS)]; type: functional
[19] = system: H4; experiment: Luminescence Cell-Based Dose Response HTS to Identify Activators of 5'UTR Stem-Loop Driven Prion Protein mRNA Translation in H4 Neuroglioblastoma Cells. [Related pubchem assays: 1829 (Project Summary), 1814 (Primary HTS)]; type: functional; conditions: Homo sapiens
[20] = biological target: Paired box protein Pax-8 (Homo sapiens, UniProt Q06710); experiment: inhibitors of PAX8-driven TPO luciferase reporter, dose response, RMG-I cells, cherry-pick (AID 687027); type: functional, cell-based;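 also: luciferase reporter driven by Pax8 target thyroperoxidase promoter measured by SteadyGlo luminescence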
[21] = cytotoxicity in OVCAR8 ovarian cancer cells, dose response, PAX8 project, cell-based, plate reader, dry powder samples (AID 743197); type: functional; conditions: OVCAR-8
[22] = biological target: Induced myeloid leukemia cell differentiation protein Mcl-1 (Homo sapiens, UniProt Q07820); type: functional
[23] = biological target: T4, Heat shock factor protein 1 (Mus musculus, UniProt P38532); experiment: inhibition of MG132-induced HSE-luciferase signal, confirmation, cell-based, NIH3T3, luminescence, dose retest (AID 2382); type: functional;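 also: NIH3T3 fibroblasts with HSF1-driven luciferase reporter stressed by proteasome inhibitor MG132; luminescence from HSF1-driven luciferase expression after 8 hours of MG132 stress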
T4 sequence (P38532 whole entry): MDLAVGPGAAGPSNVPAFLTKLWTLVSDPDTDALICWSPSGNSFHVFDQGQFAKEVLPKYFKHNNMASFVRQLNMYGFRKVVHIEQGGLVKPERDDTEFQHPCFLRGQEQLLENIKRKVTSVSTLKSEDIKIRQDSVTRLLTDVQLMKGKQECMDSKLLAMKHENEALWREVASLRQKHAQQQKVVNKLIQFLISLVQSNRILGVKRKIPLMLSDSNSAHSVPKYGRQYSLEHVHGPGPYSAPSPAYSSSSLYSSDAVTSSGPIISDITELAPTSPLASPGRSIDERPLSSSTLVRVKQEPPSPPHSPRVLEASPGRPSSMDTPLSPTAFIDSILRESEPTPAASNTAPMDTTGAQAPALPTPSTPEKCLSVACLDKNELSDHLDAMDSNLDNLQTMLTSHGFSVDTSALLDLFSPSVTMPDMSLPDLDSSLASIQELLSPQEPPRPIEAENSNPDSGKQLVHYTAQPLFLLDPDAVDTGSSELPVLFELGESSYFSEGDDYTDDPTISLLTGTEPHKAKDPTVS

[24] = P. falciparum Dd2 growth inhibitors, dose response, SYBR Green, cherry-picked samples (AID 1159567); type: functional, cell-based

Chain of FAD-linked sulfhydryl oxidase ALR (P55789 whole entry): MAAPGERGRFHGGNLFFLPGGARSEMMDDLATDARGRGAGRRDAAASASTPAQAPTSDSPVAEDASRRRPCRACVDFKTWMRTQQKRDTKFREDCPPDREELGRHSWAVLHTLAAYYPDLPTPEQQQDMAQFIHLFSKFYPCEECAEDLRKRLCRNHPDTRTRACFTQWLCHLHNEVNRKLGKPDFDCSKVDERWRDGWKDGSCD
Chain of Voltage-dependent T-type calcium channel subunit alpha-1H (O95180 whole entry): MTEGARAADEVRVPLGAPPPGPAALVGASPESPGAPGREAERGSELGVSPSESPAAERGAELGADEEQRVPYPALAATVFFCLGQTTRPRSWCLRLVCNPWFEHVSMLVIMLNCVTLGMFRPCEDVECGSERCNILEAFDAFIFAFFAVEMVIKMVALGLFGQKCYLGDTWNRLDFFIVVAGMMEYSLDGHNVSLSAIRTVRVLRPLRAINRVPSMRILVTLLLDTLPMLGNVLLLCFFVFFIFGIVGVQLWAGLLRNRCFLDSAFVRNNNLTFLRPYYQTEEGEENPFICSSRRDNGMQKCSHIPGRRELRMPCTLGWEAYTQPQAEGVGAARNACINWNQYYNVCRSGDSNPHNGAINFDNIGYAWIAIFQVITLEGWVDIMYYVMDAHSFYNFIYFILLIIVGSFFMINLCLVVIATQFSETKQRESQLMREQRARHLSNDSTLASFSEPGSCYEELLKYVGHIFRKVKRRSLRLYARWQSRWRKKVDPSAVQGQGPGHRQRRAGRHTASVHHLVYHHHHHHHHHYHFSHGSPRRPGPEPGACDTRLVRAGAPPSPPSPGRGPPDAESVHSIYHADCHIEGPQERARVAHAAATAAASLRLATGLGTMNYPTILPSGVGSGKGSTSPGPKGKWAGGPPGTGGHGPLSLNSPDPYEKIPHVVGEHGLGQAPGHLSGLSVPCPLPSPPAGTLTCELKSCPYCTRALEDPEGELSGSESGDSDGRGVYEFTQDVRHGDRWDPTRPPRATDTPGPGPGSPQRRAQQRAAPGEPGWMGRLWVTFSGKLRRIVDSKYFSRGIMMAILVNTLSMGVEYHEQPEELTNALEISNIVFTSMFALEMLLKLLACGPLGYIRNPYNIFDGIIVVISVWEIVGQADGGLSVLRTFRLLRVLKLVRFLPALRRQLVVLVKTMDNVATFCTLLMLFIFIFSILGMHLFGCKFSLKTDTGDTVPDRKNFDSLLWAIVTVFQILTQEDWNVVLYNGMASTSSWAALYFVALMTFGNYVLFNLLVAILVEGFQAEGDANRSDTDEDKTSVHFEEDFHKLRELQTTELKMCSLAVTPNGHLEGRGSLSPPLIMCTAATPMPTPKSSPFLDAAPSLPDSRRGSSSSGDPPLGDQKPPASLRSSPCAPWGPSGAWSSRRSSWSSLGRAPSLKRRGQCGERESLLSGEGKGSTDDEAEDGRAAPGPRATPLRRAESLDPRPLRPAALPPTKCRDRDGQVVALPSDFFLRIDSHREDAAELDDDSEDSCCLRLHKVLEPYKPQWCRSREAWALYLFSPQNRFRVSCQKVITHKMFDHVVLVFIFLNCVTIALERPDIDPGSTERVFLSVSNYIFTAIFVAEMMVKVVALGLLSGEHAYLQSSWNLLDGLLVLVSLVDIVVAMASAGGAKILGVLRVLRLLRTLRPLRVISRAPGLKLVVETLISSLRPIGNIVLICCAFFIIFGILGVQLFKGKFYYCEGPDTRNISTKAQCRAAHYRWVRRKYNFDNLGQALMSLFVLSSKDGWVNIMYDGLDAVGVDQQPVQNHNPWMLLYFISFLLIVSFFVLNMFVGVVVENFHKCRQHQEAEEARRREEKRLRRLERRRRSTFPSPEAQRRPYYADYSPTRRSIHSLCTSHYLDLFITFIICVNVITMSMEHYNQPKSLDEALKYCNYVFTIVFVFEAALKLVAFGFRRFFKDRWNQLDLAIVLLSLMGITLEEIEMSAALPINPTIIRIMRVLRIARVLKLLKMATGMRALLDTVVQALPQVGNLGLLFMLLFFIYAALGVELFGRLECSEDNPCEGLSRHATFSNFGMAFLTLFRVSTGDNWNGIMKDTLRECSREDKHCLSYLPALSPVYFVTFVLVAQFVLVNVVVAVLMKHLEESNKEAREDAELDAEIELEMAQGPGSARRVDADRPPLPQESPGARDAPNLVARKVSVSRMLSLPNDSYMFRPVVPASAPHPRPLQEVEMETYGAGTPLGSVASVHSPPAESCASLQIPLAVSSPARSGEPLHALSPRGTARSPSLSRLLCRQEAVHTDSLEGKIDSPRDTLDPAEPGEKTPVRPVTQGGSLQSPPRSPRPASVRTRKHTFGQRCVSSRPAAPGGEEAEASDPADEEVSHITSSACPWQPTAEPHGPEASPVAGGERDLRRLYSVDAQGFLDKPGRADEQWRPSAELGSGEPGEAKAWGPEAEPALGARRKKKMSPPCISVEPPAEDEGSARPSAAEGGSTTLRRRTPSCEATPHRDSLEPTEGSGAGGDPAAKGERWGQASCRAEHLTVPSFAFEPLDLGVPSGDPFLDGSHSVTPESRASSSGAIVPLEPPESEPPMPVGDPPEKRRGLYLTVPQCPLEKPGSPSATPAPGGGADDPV
Chain of Paired box protein Pax-8 (Q06710 whole entry): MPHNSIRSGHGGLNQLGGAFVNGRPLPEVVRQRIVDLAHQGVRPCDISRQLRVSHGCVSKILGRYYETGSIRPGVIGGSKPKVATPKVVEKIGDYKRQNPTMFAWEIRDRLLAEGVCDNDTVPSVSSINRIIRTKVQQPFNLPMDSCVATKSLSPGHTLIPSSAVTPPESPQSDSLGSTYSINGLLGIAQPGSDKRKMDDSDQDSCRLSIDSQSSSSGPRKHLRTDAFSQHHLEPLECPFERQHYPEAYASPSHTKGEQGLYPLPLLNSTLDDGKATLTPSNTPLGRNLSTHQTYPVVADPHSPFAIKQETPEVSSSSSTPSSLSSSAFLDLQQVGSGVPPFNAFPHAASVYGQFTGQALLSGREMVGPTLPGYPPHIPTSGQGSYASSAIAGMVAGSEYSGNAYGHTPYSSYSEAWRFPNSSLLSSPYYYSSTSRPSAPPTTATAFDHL
T3 sequence (P11940 whole entry): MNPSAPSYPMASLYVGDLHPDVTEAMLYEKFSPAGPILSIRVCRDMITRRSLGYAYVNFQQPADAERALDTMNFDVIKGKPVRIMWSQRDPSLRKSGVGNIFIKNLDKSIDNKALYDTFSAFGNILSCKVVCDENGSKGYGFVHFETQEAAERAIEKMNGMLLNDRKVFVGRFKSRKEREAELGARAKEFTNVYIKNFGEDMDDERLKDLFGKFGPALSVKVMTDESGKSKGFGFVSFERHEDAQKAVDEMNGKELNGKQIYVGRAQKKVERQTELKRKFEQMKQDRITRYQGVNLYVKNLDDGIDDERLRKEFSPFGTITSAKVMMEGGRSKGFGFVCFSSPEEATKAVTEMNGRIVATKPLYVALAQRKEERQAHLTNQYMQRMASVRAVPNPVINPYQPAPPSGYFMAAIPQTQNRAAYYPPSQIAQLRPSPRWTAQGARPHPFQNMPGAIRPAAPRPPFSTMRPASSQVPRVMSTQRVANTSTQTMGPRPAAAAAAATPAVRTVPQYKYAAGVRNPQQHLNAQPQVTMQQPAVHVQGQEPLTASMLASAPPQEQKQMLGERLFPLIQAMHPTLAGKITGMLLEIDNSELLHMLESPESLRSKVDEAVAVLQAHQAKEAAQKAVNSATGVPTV
Chain of Nonstructural protein 1 (Q194T2 whole entry): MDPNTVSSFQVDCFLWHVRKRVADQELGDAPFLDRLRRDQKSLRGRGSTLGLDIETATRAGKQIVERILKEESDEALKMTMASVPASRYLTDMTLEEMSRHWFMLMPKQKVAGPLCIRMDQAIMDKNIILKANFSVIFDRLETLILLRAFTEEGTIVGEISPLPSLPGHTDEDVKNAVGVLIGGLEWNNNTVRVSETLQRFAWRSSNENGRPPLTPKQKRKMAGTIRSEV
Chain of Induced myeloid leukemia cell differentiation protein Mcl-1 (Q07820 whole entry): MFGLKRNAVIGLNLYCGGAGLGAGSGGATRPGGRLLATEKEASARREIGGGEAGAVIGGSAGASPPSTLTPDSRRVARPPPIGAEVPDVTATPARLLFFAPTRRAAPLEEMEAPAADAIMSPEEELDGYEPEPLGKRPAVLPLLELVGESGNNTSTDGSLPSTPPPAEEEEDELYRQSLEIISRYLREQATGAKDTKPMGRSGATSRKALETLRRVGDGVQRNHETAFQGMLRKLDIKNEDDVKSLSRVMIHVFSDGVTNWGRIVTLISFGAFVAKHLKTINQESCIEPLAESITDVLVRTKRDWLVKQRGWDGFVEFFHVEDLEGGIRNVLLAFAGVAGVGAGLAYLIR

Cc1ccc2nc(-c3cccc(S(=O)(=O)N(C)C)c3)cn2c1
AC50 [1]: 0.045 µM (active)

Cc1c(NN=C2C(=O)NC(=O)NC2=O)c(=O)n(-c2ccccc2)n1C
IC50 [2]: 2.12 µM (active)

CC(=O)N1CCN(c2ccc(NCc3ccc(Br)o3)cc2)CC1
AC50 [1]: 0.743 µM (active) | IC50 [3]: 13.7 µM (active)

Cc1cc(C(=O)N[C@H](c2ccccc2)[C@@]2(C)C[C@@H]2[C@@H](C)C(=O)Nc2ccc3ccccc3c2)n(C)n1
CC50 [4]: > 40 µM (active) | AC50 [5]: 20 µM (inconclusive)

CCOC(=O)c1cc(C)nc(Sc2ccc(C)cc2)c1C#N
CC50 [4]: > 40 µM (active)

CCC(C)(C)n1nnnc1C(c1ccncc1)N1CCC(Cc2ccccc2)CC1 (stereo not drawn)
EC50 [6]: > 60 µM (not active) | EC50 [7]: 1.06 µM (active) | EC50 [8]: 9.75 µM (active)

COc1ccc(C(C(O)C(=O)c2c[nH]c3ccccc23)N2CCN(c3ccc(OC)cc3)CC2)cc1 (stereo not drawn)
CC50 [4]: > 40 µM (active)

Oc1ccccc1N1CCN(c2nnnn2-c2ccccc2)CC1
AC50 [1]: 7.83 µM (active)

Cc1ccc(O)c(C(=O)CC(=O)c2ccccc2Cl)c1
CC50 [4]: 24.4 µM (active) | EC50 [9]: > 160 µM (inactive) | EC50 [10]: 2.52 µM (active) | EC50 [11]: 4.15 µM (active) | EC50 [12]: 9.81 µM (active)

CC(=O)Nc1ccc(S(=O)(=O)NC(C)C(=O)NC(C)c2ccccc2)cc1 (stereo not drawn)
IC50 [13]: > 66 µM (inactive) | IC50 [14]: > 66 µM (inactive) | AC50 [1]: 0.083 µM (active)

CC1(C)Cc2c(C#N)c(SCc3nc4ccccc4[nH]3)nc(N3CCOCC3)c2CO1
IC50 [15]: 45.5 µM (inactive)

COc1cccc(N2CCN(C3CC(=O)N(c4ccc(Cl)c(Cl)c4)C3=O)CC2)c1 (stereo not drawn)
EC50 [8]: 6.84 µM (active)

O=C(NCc1nnc(S)n1-c1ccc(Br)cc1)c1ccc(S(=O)(=O)N2CCCC2)cc1
AC50 [1]: 6.96 µM (active)

Cc1ccc(NC(=O)CSCC(=O)N2c3ccccc3CCc3ccccc32)cc1
EC50 [8]: 4.65 µM (active)

N#Cc1c(-c2cccs2)cc(-c2cccnc2)nc1N
IC50 [15]: > 79 µM (inactive)

Cc1ccccc1CSCCNC(=O)CCSc1ccccc1
EC50 [8]: 3.24 µM (active)

CN(C)c1ccc(N=Nc2cccc(F)c2)cc1
IC50 [2]: 25 µM (active)

Cn1cc(C(=O)c2ccc(Cl)cc2Cl)cc1C(=O)NN=C(N)COc1ccccc1
EC50 [8]: 3.97 µM (active)

CC1CCN(C(=O)CSCC(=O)Nc2nc(-c3cccs3)cs2)CC1
EC50 [8]: 2.23 µM (active)

O=C(O)CCCCCNc1nc(S)nc2ccccc12
AC50 [1]: 7.38 µM (active)

Nc1c(N(CCC2=CCCCC2)C(=O)c2ccc([N+](=O)[O-])o2)c(=O)[nH]c(=O)n1Cc1ccccc1
CC50 [4]: > 40 µM (active) | EC50 [6]: > 60 µM (not active) | EC50 [7]: 0.345 µM (active)

C=C(C)C(=O)OCC(O)COc1ccc(C(C)(C)c2ccc(OCC(O)COC(=O)C(=C)C)cc2)cc1 (stereo not drawn)
CC50 [4]: > 40 µM (active) | AC50 [16]: 15 µM (active)

COc1ccc2nc(NC(=O)C3CCCN3S(=O)(=O)c3ccc(C)cc3)sc2c1 (stereo not drawn)
EC50 [8]: 57.5 µM (active)

O=[N+]([O-])c1c(O)nc(/C=C\c2cccc(Cl)c2)nc1O
AC50 [1]: 0.737 µM (active)

O=C(COC(=O)Cc1nnc(O)c2ccccc12)Nc1ccc(Cl)cc1F
IC50 [15]: > 79 µM (inactive)

COc1cc(-c2cc(NC=O)c3ncc(-c4ccc(C(C)=O)cc4)n3c2)ccc1O
IC50 [15]: > 79 µM (inactive)

COc1ccc(-c2ccc3[nH]c4c(c3c2)CCN2C[C@H]3[C@H](C)ON(C)[C@H]3C[C@@H]42)cc1
IC50 [15]: > 79 µM (inactive)

C/C(=N\Nc1nnc2c3ccccc3n(C)c2n1)c1ccc(C)o1
EC50 [17]: 71.3 µM (active) | EC50 [18]: 17.5 µM (active) | EC50 [19]: > 120 µM (not active) | IC50 [15]: > 79 µM (inactive)

C[C@@H]1CCCCO[C@@H](CN(C)Cc2ccccc2)[C@@H](C)CN([C@@H](C)CO)C(=O)c2cc(NS(=O)(=O)c3ccc(Cl)cc3)ccc2O1
AC50 [20]: 5.43 µM (active) | AC50 [21]: 63.2 µM (active)

O=C(C[C@H]1C[C@@H]2c3cc(NC(=O)Nc4ccc(C(F)(F)F)cc4)ccc3O[C@@H]2[C@@H](CO)O1)NCCc1ccccc1
AC50 [20]: 2.07 µM (active) | AC50 [21]: 60.1 µM (active)

C[C@H](CO)N1C[C@H](C)[C@H](CN(C)C(=O)c2ccccc2)OCCCC[C@H](C)Oc2ccc(NC(=O)Nc3ccc(C(F)(F)F)cc3)cc2C1=O
AC50 [20]: 5.26 µM (active) | AC50 [21]: > 70 µM (inactive)

COc1ccc(C(=O)n2nc(C)c(Br)c2C)cc1
IC50 [22]: 2.84 µM (not active)

CC(C)n1cc(/C=N/Nc2ccc(C(=O)O)cc2)c2ccccc21
EC50 [23]: < 0.16 µM (active) | AC50 [1]: 0.192 µM (active)

COc1cc(CN2CC3(CN(C(=O)CN4CCOCC4)C3)c3c(n(C)c4cc(OC)ccc34)[C@@H]2CO)cc(OC)c1
AC50 [24]: 6.16 µM (active)

O=C(c1ccc(F)cc1)N1CC(=O)N2[C@H](CO)[C@@H](c3ccc(/C=C/c4ccccc4)cc3)[C@@H]2C1
AC50 [24]: 3.9 µM (active)

C[C@H](CO)N1C[C@H](C)[C@H](CN(C)C(=O)Nc2ccc(F)cc2)Oc2cc(/C=C/c3ccccc3)ccc2S1(=O)=O
AC50 [24]: 5.46 µM (active)

O=C(C1CC1)N1CC(=O)N2[C@H](CO)[C@@H](c3ccc(C#CCc4ccccc4)cc3)[C@@H]2C1
AC50 [24]: 5.44 µM (active)

COc1ccc2c3c(n(C)c2c1)[C@H](CO)N(C(=O)Nc1ccc(F)cc1)CC31CCN(C(=O)c2cccnc2)CC1
AC50 [24]: 4.52 µM (active)
